Laboratory results from PMC6149889, “Synthesis, Analysis, Cholinesterase-Inhibiting Activity and Molecular Modelling Studies of 3-(Dialkylamino)-2-hydroxypropyl 4-[(Alkoxy-carbonyl)amino]benzoates and Their Quaternary Ammonium Salts” (Molecules : A Journal of Synthetic Chemistry and Natural …, 2017).

Target: AChE (electric eel) (Electrophorus electricus, UniProt O42275)
Test: Ellman assay, 96-well, […] nm
Format: biochemical
Settings: not given

AChE (electric eel), sequence (O42275 24-633): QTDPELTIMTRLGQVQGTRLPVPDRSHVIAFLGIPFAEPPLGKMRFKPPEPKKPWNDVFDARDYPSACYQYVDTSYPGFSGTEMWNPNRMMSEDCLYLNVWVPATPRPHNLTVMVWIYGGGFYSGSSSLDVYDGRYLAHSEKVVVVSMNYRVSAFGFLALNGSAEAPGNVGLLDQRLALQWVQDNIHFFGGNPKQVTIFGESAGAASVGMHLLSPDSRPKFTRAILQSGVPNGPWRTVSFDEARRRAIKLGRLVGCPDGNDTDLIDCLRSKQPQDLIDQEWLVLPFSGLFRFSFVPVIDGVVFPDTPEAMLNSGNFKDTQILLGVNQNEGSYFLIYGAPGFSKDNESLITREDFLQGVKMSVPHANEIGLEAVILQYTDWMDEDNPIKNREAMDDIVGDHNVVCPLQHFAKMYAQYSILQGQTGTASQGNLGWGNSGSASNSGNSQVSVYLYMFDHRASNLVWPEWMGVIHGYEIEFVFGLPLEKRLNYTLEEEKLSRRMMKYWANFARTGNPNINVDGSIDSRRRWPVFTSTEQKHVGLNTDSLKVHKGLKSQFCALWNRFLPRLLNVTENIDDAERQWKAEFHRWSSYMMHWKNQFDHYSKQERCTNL

Question: COC(=O)Nc1ccc(C(=O)OCC(O)C[N+](C)(C)C)cc1 (stereo not drawn) [6a, (2-Hydroxy-3-{4-[(methoxycarbonyl)amino]benzoyloxy}propyl)trimethylammonium iodide] was tested. Which IC50 did it give?
Answer: > 100 µM

Question: Which IC50 does the source give for CCCCOC(=O)Nc1ccc(C(=O)OCC(O)C[N+](C)(C)C)cc1 (stereo not drawn) [6i, (3-{4-[(Butoxycarbonyl)amino]benzoyloxy}-2-hydroxypropyl)trimethylammonium iodide] here?
Answer: > 100 µM

Question: With COC(=O)Nc1ccc(C(=O)OCC(O)C[N+](C)(C)C(C)C)cc1 (stereo not drawn) [6c, (2-Hydroxy-3-{4-[(methoxycarbonyl)amino]benzoyloxy}propyl)dimethyl(propan-2-yl)ammonium iodide] as the molecule, how does the IC50 read?
Answer: > 100 µM

Question: Which IC50 does the source give for CCOC(=O)Nc1ccc(C(=O)OCC(O)CN(C)C)cc1 (stereo not drawn) [5b, (3-{4-[(ethoxycarbonyl)amino]benzoyloxy}-2-hydroxypropyl)dimethylammonium chloride] here?
Answer: > 100 µM

Question: COC(=O)Nc1ccc(C(=O)OCC(O)CN(C)C)cc1 (stereo not drawn) [5a, (2-Hydroxy-3-{4-[(methoxycarbonyl)amino]benzoyloxy}propyl)dimethylammonium chloride] was tested. Which IC50 did it give?
Answer: > 100 µM

Question: CCOC(=O)Nc1ccc(C(=O)OCC(O)C[N+](C)(C)CC)cc1 (stereo not drawn) [6e, (3-{4-[(Ethoxycarbonyl)amino]benzoyloxy}-2-hydroxypropyl)(ethyl)dimethylammonium iodide] was tested. Which IC50 did it give?
Answer: > 100 µM

Question: How did the IC50 turn out when CCOC(=O)Nc1ccc(C(=O)OCC(O)CN(CC)CC)cc1 (stereo not drawn) [5f, (3-{4-[(Ethoxycarbonyl)amino]benzoyloxy}-2-hydroxypropyl)diethylammonium chloride] was run?
Answer: > 100 µM

Question: With CCCOC(=O)Nc1ccc(C(=O)OCC(O)C[N+](C)(CC)CC)cc1 (stereo not drawn) [6h, Diethyl (2-hydroxy-3-{4-[(propoxycarbonyl)amino]benzoyloxy}propyl)methylammonium iodide] as the molecule, how does the IC50 read?
Answer: 58 µM

Same assay, conditions: read-out: AChE IC50

Question: With CCCOC(=O)Nc1ccc(C(=O)OCC(O)CN(C)C)cc1 (stereo not drawn) [5c, (2-Hydroxy-3-{4-[(propoxycarbonyl)amino]benzoyloxy}propyl)dimethylammonium chloride] as the molecule, how does the IC50 read?
Answer: > 100 µM

Question: CCOC(=O)Nc1ccc(C(=O)OCC(O)C[N+](C)(CC)CC)cc1 (stereo not drawn) [6f, (3-{4-[(Ethoxycarbonyl)amino]benzoyloxy}-2-hydroxypropyl)diethylmethylammonium iodide] was tested. Which IC50 did it give?
Answer: 56 µM

Question: CCCCOC(=O)Nc1ccc(C(=O)OCC(O)CN(C)C)cc1 (stereo not drawn) [5d, (3-{4-[(Butoxycarbonyl)amino]benzoyloxy}-2-hydroxypropyl)dimethylammonium chloride] was tested. Which IC50 did it give?
Answer: > 100 µM

Question: For CCN(CC)CC(O)COC(=O)c1ccc(NC(=O)OC)cc1 (stereo not drawn) [5e, Diethyl-(2-hydroxy-3-{4-[(methoxycarbonyl)amino]benzoyloxy}propyl)ammonium chloride], which IC50 is on record?
Answer: > 100 µM

Question: Which IC50 does the source give for CCCOC(=O)Nc1ccc(C(=O)OCC(O)C[N+](C)(C)C)cc1 (stereo not drawn) [6g, (2-Hydroxy-3-{4-[(propoxycarbonyl)amino]benzoyloxy}propyl)trimethylammonium iodide] here?
Answer: > 100 µM

Question: With CCOC(=O)Nc1ccc(C(=O)OCC(O)C[N+](C)(C)C)cc1 (stereo not drawn) [6d, (3-{4-[(Ethoxycarbonyl)amino]benzoyloxy}-2-hydroxypropyl)trimethylammonium iodide] as the molecule, how does the IC50 read?
Answer: > 100 µM

Question: For CC[N+](C)(C)CC(O)COC(=O)c1ccc(NC(=O)OC)cc1 (stereo not drawn) [6b, Ethyl(2-hydroxy-3-{4-[(methoxycarbonyl)amino]benzoyloxy}propyl)dimethylammonium iodide], which IC50 is on record?
Answer: 100 µM

Target: T1, BuChE (equine serum) (Equus caballus, UniProt P81908)
T1 construct: gene BCHE
Test: Ellman assay, 96-well, […] nm
Format: biochemical
Settings: not given

T1 sequence (P81908 whole entry): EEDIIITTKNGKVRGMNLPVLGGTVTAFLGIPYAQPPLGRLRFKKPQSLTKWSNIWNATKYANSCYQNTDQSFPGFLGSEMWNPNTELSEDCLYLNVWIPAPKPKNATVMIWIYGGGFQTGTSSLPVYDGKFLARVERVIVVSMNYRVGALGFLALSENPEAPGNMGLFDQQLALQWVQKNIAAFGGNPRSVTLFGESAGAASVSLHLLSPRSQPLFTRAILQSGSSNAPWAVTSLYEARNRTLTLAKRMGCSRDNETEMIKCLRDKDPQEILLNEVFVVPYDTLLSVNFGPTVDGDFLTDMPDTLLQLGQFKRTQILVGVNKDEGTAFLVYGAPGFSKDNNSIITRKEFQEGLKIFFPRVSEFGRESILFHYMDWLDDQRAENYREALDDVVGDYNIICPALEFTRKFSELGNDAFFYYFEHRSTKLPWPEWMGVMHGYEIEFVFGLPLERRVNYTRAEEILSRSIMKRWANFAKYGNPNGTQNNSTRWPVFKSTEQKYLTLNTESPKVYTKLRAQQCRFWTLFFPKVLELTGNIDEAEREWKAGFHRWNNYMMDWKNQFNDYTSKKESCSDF

Question: How did the IC50 turn out when CCCOC(=O)Nc1ccc(C(=O)OCC(O)CN(C)C)cc1 (stereo not drawn) [5c, (2-Hydroxy-3-{4-[(propoxycarbonyl)amino]benzoyloxy}propyl)dimethylammonium chloride] was run?
Answer: > 100 µM

Question: CCOC(=O)Nc1ccc(C(=O)OCC(O)C[N+](C)(CC)CC)cc1 (stereo not drawn) [6f, (3-{4-[(Ethoxycarbonyl)amino]benzoyloxy}-2-hydroxypropyl)diethylmethylammonium iodide] was tested. Which IC50 did it give?
Answer: > 100 µM

Question: How did the IC50 turn out when COC(=O)Nc1ccc(C(=O)OCC(O)C[N+](C)(C)C)cc1 (stereo not drawn) [6a, (2-Hydroxy-3-{4-[(methoxycarbonyl)amino]benzoyloxy}propyl)trimethylammonium iodide] was run?
Answer: > 100 µM

Question: With CCCCOC(=O)Nc1ccc(C(=O)OCC(O)C[N+](C)(C)C)cc1 (stereo not drawn) [6i, (3-{4-[(Butoxycarbonyl)amino]benzoyloxy}-2-hydroxypropyl)trimethylammonium iodide] as the molecule, how does the IC50 read?
Answer: > 100 µM

Question: With COC(=O)Nc1ccc(C(=O)OCC(O)C[N+](C)(C)C(C)C)cc1 (stereo not drawn) [6c, (2-Hydroxy-3-{4-[(methoxycarbonyl)amino]benzoyloxy}propyl)dimethyl(propan-2-yl)ammonium iodide] as the molecule, how does the IC50 read?
Answer: > 100 µM

Question: For CCOC(=O)Nc1ccc(C(=O)OCC(O)CN(C)C)cc1 (stereo not drawn) [5b, (3-{4-[(ethoxycarbonyl)amino]benzoyloxy}-2-hydroxypropyl)dimethylammonium chloride], which IC50 is on record?
Answer: > 100 µM

Question: With CCCCOC(=O)Nc1ccc(C(=O)OCC(O)CN(C)C)cc1 (stereo not drawn) [5d, (3-{4-[(Butoxycarbonyl)amino]benzoyloxy}-2-hydroxypropyl)dimethylammonium chloride] as the molecule, how does the IC50 read?
Answer: > 100 µM

Question: For CCN(CC)CC(O)COC(=O)c1ccc(NC(=O)OC)cc1 (stereo not drawn) [5e, Diethyl-(2-hydroxy-3-{4-[(methoxycarbonyl)amino]benzoyloxy}propyl)ammonium chloride], which IC50 is on record?
Answer: > 100 µM

Question: With COC(=O)Nc1ccc(C(=O)OCC(O)CN(C)C)cc1 (stereo not drawn) [5a, (2-Hydroxy-3-{4-[(methoxycarbonyl)amino]benzoyloxy}propyl)dimethylammonium chloride] as the molecule, how does the IC50 read?
Answer: > 100 µM

Question: For CCOC(=O)Nc1ccc(C(=O)OCC(O)C[N+](C)(C)CC)cc1 (stereo not drawn) [6e, (3-{4-[(Ethoxycarbonyl)amino]benzoyloxy}-2-hydroxypropyl)(ethyl)dimethylammonium iodide], which IC50 is on record?
Answer: > 100 µM

Question: With CCOC(=O)Nc1ccc(C(=O)OCC(O)CN(CC)CC)cc1 (stereo not drawn) [5f, (3-{4-[(Ethoxycarbonyl)amino]benzoyloxy}-2-hydroxypropyl)diethylammonium chloride] as the molecule, how does the IC50 read?
Answer: > 100 µM

Question: With CCCOC(=O)Nc1ccc(C(=O)OCC(O)C[N+](C)(CC)CC)cc1 (stereo not drawn) [6h, Diethyl (2-hydroxy-3-{4-[(propoxycarbonyl)amino]benzoyloxy}propyl)methylammonium iodide] as the molecule, how does the IC50 read?
Answer: > 100 µM

Question: For CCCOC(=O)Nc1ccc(C(=O)OCC(O)C[N+](C)(C)C)cc1 (stereo not drawn) [6g, (2-Hydroxy-3-{4-[(propoxycarbonyl)amino]benzoyloxy}propyl)trimethylammonium iodide], which IC50 is on record?
Answer: > 100 µM

Question: For CCOC(=O)Nc1ccc(C(=O)OCC(O)C[N+](C)(C)C)cc1 (stereo not drawn) [6d, (3-{4-[(Ethoxycarbonyl)amino]benzoyloxy}-2-hydroxypropyl)trimethylammonium iodide], which IC50 is on record?
Answer: > 100 µM

Question: Which IC50 does the source give for CC[N+](C)(C)CC(O)COC(=O)c1ccc(NC(=O)OC)cc1 (stereo not drawn) [6b, Ethyl(2-hydroxy-3-{4-[(methoxycarbonyl)amino]benzoyloxy}propyl)dimethylammonium iodide] here?
Answer: > 100 µM
